Where two headings read alike, the source gives them in different places.
Key:
TAAR1 = target: T1, TAAR1 (Homo sapiens, UniProt Q96RJ0); assay: BRET-based cellular cAMP (EPAC biosensor) assay of TAAR1 agonism in transfected HEK-293 cells; settings: for Emax: HEK293, read-out: Emax: maximum observed activation of TAAR1 relative to that observed for 1 μM of β-PEA; for Emax: maximum observed activation of TAAR1 relative to that observed for 1 μM of β-PEA: relative to 1 μM β-PEA, mean from 3 BRET assays, errors ±5–10%
T1 sequence (Q96RJ0 1-339): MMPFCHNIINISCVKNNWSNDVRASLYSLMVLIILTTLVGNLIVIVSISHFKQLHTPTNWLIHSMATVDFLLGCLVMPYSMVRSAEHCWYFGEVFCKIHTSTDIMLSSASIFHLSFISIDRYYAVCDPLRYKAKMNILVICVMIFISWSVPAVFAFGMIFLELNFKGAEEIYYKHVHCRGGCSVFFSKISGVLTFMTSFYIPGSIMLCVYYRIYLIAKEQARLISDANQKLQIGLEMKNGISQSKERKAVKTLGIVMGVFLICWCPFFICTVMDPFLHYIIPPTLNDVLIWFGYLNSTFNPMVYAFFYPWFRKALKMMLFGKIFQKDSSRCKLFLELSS

[1] = TAAR1 activation, BRET assay, HEK-293, mean from 3 assays

| Compound | EC50 (TAAR1) | Emax (TAAR1) | melting point | EC50 (TAAR1; [1]) | Emax: maximum observed activation of TAAR1 relative to that observed for 1 μM of β-PEA (TAAR1) |
| --- | --- | --- | --- | --- | --- |
| Cc1ccc(Oc2ccc(-c3nnc(CCN)[nH]3)cc2)cc1.Cl [Compound 54, 2-(5-(4-[4-Methylphenoxy]phenyl)-4H-1,2,4-triazol-3-yl)ethan-1-amine Hydrochloride] | 150 nM | 94% | 234 to 236 °C |  |  |
| Cl.NCCc1nnc(-c2cccc(I)c2)[nH]1 [Compound 41, 2-(5-(3-Iodophenyl)-4H-1,2,4-triazol-3-yl)ethan-1-amine Hydrochloride] | 890 nM | 80% | 224 to 225 °C |  |  |
| CCOc1cc(-c2nnc(CCN)[nH]2)cc(OCC)c1OCC.Cl [Compound 32, 2-(5-(3,4,5-Triethoxyphenyl)-4H-1,2,4-triazol-3-yl)ethan-1-amine Hydrochloride] |  |  | 253 to 255 °C | inactive | inactive |
| COc1ccc(-c2ccc(-c3nnc(CCN)[nH]3)cc2)cc1OC.Cl [Compound 64, 2-(5-(3′,4′-Dimethoxy-(1,1′-biphenyl)-4-yl)-4H-1,2,4-triazol-3-yl)ethan-1-amine Hydrochloride] | 185 nM | 104% | 199 to 201 °C |  |  |
| Cl.NCCc1nnc(-c2cccc(-c3ccc(OC(F)(F)F)cc3)c2)[nH]1 [Compound 67, 2-(5-(4′-(Trifluoromethoxy)-(1,1′-biphenyl)-3-yl)-4H-1,2,4-triazol-3-yl)ethan-1-amine Hydrochloride] | 96 nM | 94% | 253 to 257 °C |  |  |
| CCOc1ccc(-c2nnc(CCN)[nH]2)cc1.Cl [Compound 25, 2-(5-(4-Ethoxyphenyl)-4H-1,2,4-triazol-3-yl)ethan-1-amine Hydrochloride] | 550 nM | 139% | 235 to 236 °C |  |  |
| COc1ccc(-c2nnc(CCN)[nH]2)cc1OC.Cl [Compound 11, 2-(5-(3,4-Dimethoxyphenyl)-4H-1,2,4-triazol-3-yl)ethan-1-amine Hydrochloride] |  |  | 209 to 210 °C | inactive | inactive |
| Cl.NCCc1nnc(-c2cccc([N+](=O)[O-])c2)[nH]1 [Compound 36, 2-(5-(3-Nitrophenyl)-4H-1,2,4-triazol-3-yl)ethan-1-amine Hydrochloride] | 440 nM | 110% | 214 to 216 °C |  |  |
| CCCCOc1ccc(-c2nnc(CCN)[nH]2)cc1.Cl [Compound 40, 2-(5-(4-Butoxyphenyl)-4H-1,2,4-triazol-3-yl)ethan-1-amine Hydrochloride] | 34 nM | 107% | 205 to 207 °C | double-digit nanomolar range |  |
| Cc1cc(-c2nnc(CCN)[nH]2)ccc1I.Cl [Compound 42, 2-(5-(4-Iodo-3-methylphenyl)-4H-1,2,4-triazol-3-yl)ethan-1-amine Hydrochloride] | > 1000 nM | 76% | 225 to 227 °C |  |  |
| 2-(5-(4-Ethylphenyl)-4H-1,2,4-triazol-3-yl)ethan-1-amine Hydrochloride [Compound 26] |  |  |  | > 1000 nM | 71 |
| Cl.NCCc1nnc(-c2cccs2)[nH]1 [Compound 16, 2-(5-(Thiophen-2-yl)-4H-1,2,4-triazol-3-yl)ethan-1-amine Hydrochloride] | > 1000 nM | 138% | 248 to 250 °C |  |  |
| Cc1cc(-c2nnc(CCN)[nH]2)ccc1OCc1ccccc1F.Cl [Compound 46, 2-(5-(4-[(2-Fluorobenzyl)oxy]-3-methylphenyl)-4H-1,2,4-triazol-3-yl)ethan-1-amine Hydrochloride] | 398 nM | 82% | 234 to 236 °C |  |  |
| Cl.NCCc1nnc(-c2cccc(Br)c2)[nH]1 [Compound 20, 2-(5-(3-Bromophenyl)-4H-1,2,4-triazol-3-yl)ethan-1-amine Hydrochloride] | 218 nM | 124% | 239 to 241 °C |  |  |
| Cc1ccc(Oc2cccc(-c3nnc(CCN)[nH]3)c2)c(C)c1.Cl.Cl [Compound 52, 2-(5-(3-[2,4-Dimethylphenoxy]phenyl)-4H-1,2,4-triazol-3-yl)ethan-1-amine Hydrochloride Hydrochloride] | > 1000 nM | 79% | 308 to 310 °C |  |  |
| Cc1ccccc1-c1nnc(CCN)[nH]1.Cl [Compound 23, 2-(5-(2-Methylphenyl)-4H-1,2,4-triazol-3-yl)ethan-1-amine Hydrochloride] | 468 nM | 116% | 235 to 236 °C |  |  |
| Cl.NCCc1nnc(-c2cccc(Oc3ccccc3Cl)c2)[nH]1 [Compound 53, 2-(5-(3-[2-Chlorophenoxy]phenyl)-4H-1,2,4-triazol-3-yl)ethan-1-amine Hydrochloride] | 847 nM | 71% | 202 to 210 °C |  |  |

| Compound | EC50 (TAAR1) | Emax (TAAR1) | melting point | EC50 (TAAR1; [1]) | Emax: maximum observed activation of TAAR1 relative to that observed for 1 μM of β-PEA (TAAR1) |
| --- | --- | --- | --- | --- | --- |
| Cl.NCCc1nnc(-c2cccc(C(F)(F)F)c2)[nH]1 [Compound 18] |  |  |  | inactive | inactive |
| Cl.NCCc1nnc(-c2ccccc2)[nH]1 [Compound 22, 2-(5-Phenyl-4H-1,2,4-triazol-3-yl)ethan-1-amine Hydrochloride] | 283 nM | 118% | 250 to 252 °C |  |  |
| COc1ccc(-c2ccc(-c3nnc(CCN)[nH]3)cc2)cc1.Cl [Compound 58, 2-(5-(4′-Methoxy-(1,1′-biphenyl)-4-yl)-4H-1,2,4-triazol-3-yl)ethan-1-amine Hydrochloride] | 6 nM | 97% | 300 to 301 °C |  |  |
| Cl.NCCc1nnc(-c2ccc(OCc3ccccc3F)c(I)c2)[nH]1 [Compound 56, 2-(5-(4-[(2-Fluorobenzyl)oxy]-3-iodophenyl)-4H-1,2,4-triazol-3-yl)ethan-1-amine Hydrochloride] | 316 nM | 87% | 208 to 209 °C |  |  |
| Cl.NCCc1nnc(-c2ccc3ncccc3c2)[nH]1 [Compound 35, 2-(5-(Quinolin-6-yl)-4H-1,2,4-triazol-3-yl)ethan-1-amine Hydrochloride] | > 1000 nM | 41% | 265 to 267 °C |  |  |
| Cl.NCCc1nnc(COc2ccccc2)[nH]1 [Compound 17, 2-(5-(Phenoxymethyl)-4H-1,2,4-triazol-3-yl)ethan-1-amine Hydrochloride] |  |  | 206 to 207 °C | inactive | inactive |
| 2-(5-(3-Methyl-4-[([4-(trifluoromethyl)benzyl]oxy)phenyl]-4H-1,2,4-triazol-3-yl)) Hydrochloride [Compound 49] |  |  |  | inactive | inactive |
| Cl.NCCc1nnc(-c2ccc([N+](=O)[O-])cc2)[nH]1 [Compound 14, 2-(5-(4-Nitrophenyl)-4H-1,2,4-triazol-3-yl)ethan-1-amine Hydrochloride] |  |  | 239 to 240 °C | inactive | inactive |
| Cl.NCCc1nnc(-c2ccc(-c3ccc(F)cc3F)cc2)[nH]1 [Compound 61, 2-(5-(2′,4′-Difluoro-(1,1′-biphenyl)-4-yl)-4H-1,2,4-triazol-3-yl)ethan-1-amine Hydrochloride] | 18 nM | 93% | 251 to 253 °C |  |  |
| Cl.NCCc1nnc(-c2ccc(Cl)cc2)[nH]1 [Compound 28, 2-(5-(4-Chlorophenyl)-4H-1,2,4-triazol-3-yl)ethan-1-amine Hydrochloride] | 522 nM | 107% | 239 to 241 °C |  |  |
| Cl.NCCc1nnc(-c2cccc(C(F)(F)F)c2)[nH]1 [Compound 8, 2-(5-(3-[Trifluoromethyl]phenyl)-4H-1,2,4-triazol-3-yl)ethan-1-amine Hydrochloride] |  |  |  | 210 nM | 108 |
| Cl.NCCc1nnc(-c2cccc(-c3ccc(F)cc3F)c2)[nH]1 [Compound 66] |  |  |  |  | 91 |
| CN(C)c1cccc(-c2nnc(CCN)[nH]2)c1.Cl [Compound 24, 3-(5-(2-Aminoethyl)-4H-1,2,4-triazol-3-yl)-N,N-dimethylaniline Hydrochloride] |  |  |  | inactive | inactive |
| Cl.NCCc1nnc(-c2ccccc2[N+](=O)[O-])[nH]1 [Compound 27, 2-(5-(2-Nitrophenyl)-4H-1,2,4-triazol-3-yl)ethan-1-amine Hydrochloride] |  |  |  | > 1000 nM | 69 |
| 2-(5-(2-[3,4-Difluorophenoxy]phenyl)-4H-1,2,4-triazol-3-yl) Hydrochloride [Compound 50] |  |  |  | inactive | inactive |
| Cl.NCCc1nnc(-c2cccc(-c3ccc(F)cc3F)c2)[nH]1 [Compound 66, 2-(5-(4′-(2′,4′-Difluoro-(1,1′-biphenyl)-3-yl)-4H-1,2,4-triazol-3-yl)ethan-1-amine Hydrochloride] |  |  |  | 300 nM |  |

From article PMC9687812, “Discovery of Trace Amine-Associated Receptor 1 (TAAR1) Agonist 2-(5-(4′-Chloro-[1,1′-biphenyl]-4-yl)-4H-1,2,4-triazol-3-yl)ethan-1-amine (LK00764) for the Treatment of Psychotic Disorders” (Biomolecules, 2022)
